Test results reported in US5789431A, “Naphthoquinone antitumor compound and method” (The University of North Carolina at Chapel Hill, priority 1996, dated 1998).
Where two headings read alike, the source gives them in different places.

Assays:
KB cells = assay: in vitro cytotoxicity screening against KB cells in culture; format: cell-based; details: Homo sapiens, calculated from 2 data points across 50% inhibition in cell growth, read-out: ED50 (the source's name)
Experimental: Compound 5 was assayed for in vitro cytotoxicity against KB cells in culture, following the protocol of Monks. The KB cell line was obtained from the American Type Culture Collection, Rockville, MD, and cells were adapted to grow in antibiotic-free RPMI-1640 medium supplemented with […] calf serum.
The ED50 value was calculated mathematically from 2 data points across 50% inhibition in cell growth.

OVCAR-8 = assay: in vitro ovarian cancer cell growth inhibition (NCI screen)
NCI-H522 = assay: in vitro non-small cell lung cancer cell growth inhibition (NCI screen)
OVCAR-3 = assay: in vitro ovarian cancer cell growth inhibition (NCI screen)
KM 12 = assay: in vitro colon cancer cell growth inhibition (NCI screen)
COLO-205 = assay: as above
NCI-H23 = assay: in vitro non-small cell lung cancer cell growth inhibition (NCI screen)
OVCAR-5 = assay: in vitro ovarian cancer cell growth inhibition (NCI screen)
human tumor cell lines = format: cell-based; details: for GI50: Homo sapiens
SF-268 = assay: in vitro CNS cancer cell growth inhibition (NCI screen)
HOP-92 = assay: in vitro non-small cell lung cancer cell growth inhibition (NCI screen)
HCT-116 = assay: in vitro colon cancer cell growth inhibition (NCI screen)
MCF-7 = assay: in vitro breast cancer cell growth inhibition (NCI screen)
OVCAR-4 = assay: in vitro ovarian cancer cell growth inhibition (NCI screen); details: OVACR-4
SW 620 = assay: in vitro colon cancer cell growth inhibition (NCI screen)
U 251 = assay: in vitro CNS cancer cell growth inhibition (NCI screen)
786-0 = assay: in vitro renal cancer cell growth inhibition (NCI screen)
UACC-62 = assay: in vitro melanoma cell growth inhibition (NCI screen)
SNB-75 = assay: in vitro CNS cancer cell growth inhibition (NCI screen)
RXF-393 = assay: in vitro renal cancer cell growth inhibition (NCI screen)
HS 578T = assay: in vitro breast cancer cell growth inhibition (NCI screen)
SF-295 = assay: in vitro CNS cancer cell growth inhibition (NCI screen)
SK-OV-3 = assay: in vitro ovarian cancer cell growth inhibition (NCI screen)
[1] = cancer cell panel, general / most cell lines, read-out: logGI50 values in the cancer cell line panel (converted)

`CCn1c(C)nc2c1C(=O)c1ccccc1C2=O` [Compound 5, 1-ethyl-2-methylnaphth-[2,3-d]imidazole-4,9-dione] was tested, and the IC50 (KB cells) was < 0.4 µg/mL, the “cytotoxicity log GI50” value (OVCAR-8) was -6.31 M and the “cytotoxicity log GI50” value (NCI-H522) was -6.62 M. The “cytotoxicity log GI50” value (OVCAR-3) was -7.30 M, the “cytotoxicity log GI50” value (KM 12) was -5.76 M and the “cytotoxicity log GI50” value (COLO-205) was -6.45 M. The “cytotoxicity log GI50” value (NCI-H23) was -5.81 M, the “cytotoxicity log GI50” value (OVCAR-5) was -6.11 M and the GI50 (human tumor cell lines; OVCAR-3, -4, -5, and -8 ovarian cancer cell lines, read-out: logGI50 values (range over cell lines) (converted)) was 0.0501 to 0.794 µM. For the same compound, the GI50 (human tumor cell lines; [1]) was 0.1 to 1 µM, the “cytotoxicity against tumor cells (in words)” value (human tumor cell lines; cancer cell line panel) was “most active naphth[2,3-d]imidazole-4,9-dione derivative” and the “cytotoxicity log GI50” value (SF-268) was -6.48 M. The “cytotoxicity log GI50” value (HOP-92) was -5.79 M, the “cytotoxicity log GI50” value (HCT-116) was -5.91 M and the “cytotoxicity log GI50” value (MCF-7) was -6.17 M. The “cytotoxicity log GI50” value (OVCAR-4) was -6.49 M, the “cytotoxicity log GI50” value (SW 620) was -6.17 M and the “cytotoxicity log GI50” value (U 251) was -5.72 M.

In the case of `CCn1c(-c2cc(OC)cc(OC)c2)nc2c1C(=O)c1ccccc1C2=O` [Compound 28], the “cytotoxicity log GI50” value (NCI-H522) is reported as -5.19 M, the “cytotoxicity log GI50” value (786-0) is reported as -4.34 M and the “cytotoxicity log GI50” value (UACC-62) is reported as -4.69 M. For the same compound, the “cytotoxicity log GI50” value (SNB-75) was -4.65 M, the “cytotoxicity log GI50” value (RXF-393) was -4.86 M and the GI50 (human tumor cell lines; [1]) was ~10 µM. The “cytotoxicity log GI50” value (HS 578T) was -4.44 M, the “cytotoxicity log GI50” value (SF-295) was -4.53 M and the “cytotoxicity log GI50” value (SK-OV-3) was -5.41 M.
